The values below come from patent US9896481B2, “Modified mini-hepcidin peptides and methods of using thereof” (priority 2011, dated 2018).

Non-standard residues stand in square brackets, D forms with d. Residues, ends and D or L forms follow the SMILES beside them. *: point of attachment. TTDA(Palmitoyl) = CCCCCCCCCCCCCCCC(=O)NCCCOCCOCCOCCCN*; Ida = 2,2'-azanediyldiacetic acid, O=C(O)CNCC(=O)*; Ida(NHPal) = Ida cap bearing a palmityl amide; Dip = N[C@H](C(=O)O)C(c1ccccc1)c1ccccc1; β3hF = N[C@H](CC(=O)O)Cc1ccccc1; NMeD = CN[C@@H](CC(=O)O)C(=O)O; β3hP = O=C(O)C[C@@H]1CCCN1; AEEEA = NCCOCCOCCOCC(=O)O; Ahx = NCCCCCC(=O)O

For data set [1], the system named is mouse. Description: Activity at 20 nmoles/mouse: serum iron 4 hours after injection versus solvent (Tables 3 and 4). The data set is classed as in vivo. Also noted: key: Y: “Active” means that the injection of the compound resulted in statistically significant (p < 0.05) lowering of serum iron compared to solvent injection when measured 4 hours after administration; Y*: detectable and reproducible activity but at least 50% lower than other active compounds in Table 4. Particulars: Table 4; intraperitoneal; serum iron 4 h after administration.

Data set [2] has as its system Hamp1-/- mice. The experiment in a line: Treatment study: 2 weeks daily PR65 in iron-overloaded hepcidin knockout mice. The data set is classed as in vivo, mouse. The following applies: 50 nmoles daily s.c., 14 days. As for the experimental part: To test the effect of PR65 on iron-loaded Hamp1^−/− mice (“treatment” studies), male mice were kept on the standard diet for their entire lifespan. Beginning at 12-14 weeks of age, 50 nmoles of PR65 or solvent was injected daily by the subcutaneous route for 2 weeks.
To assess the potential of mini-hepcidins as a standalone treatment for iron overload in subjects, 12 week old iron-overloaded hepcidin knockout mice were injected with 50 nmoles of PR65 daily for 14 days. […] In contrast to mice that were iron-depleted before PR65 administration, in mice with established iron overload serum iron levels were not decreased 24 hours after the last dose compared to solvent-treated mice (p=0.682) (FIG. 15B). […] The less than 24 hours duration of the hypoferremic effect of each 50 nmoles dose may have been due to the severe iron overload of the hepcidin knockout mice at this age. Accumulated hepatocyte iron could stimulate ferroportin synthesis and iron efflux from hepatocytes into plasma by relieving the inhibition of ferroportin translation by iron-regulatory proteins (IRPs) interacting with 5′ iron-regulatory element (5′ IRE) in the ferroportin mRNA, and possibly by other mechanisms.

For data set [3], the system named is Hamp1-/- mice. Description: Prevention study: 2 weeks daily PR65 in iron-depleted hepcidin knockout mice on iron-loading diet.
Method: PR65 was administered subcutaneously in 100 μl of SL220 solubilizer. Short-term studies were carried out for up to 48 hours to establish the effectiveness of a single injection. Long-term studies (“prevention” and “treatment”) were carried out for 2 weeks using daily injections and iron and hematological parameters measured 24 hours after the last injection.
To test the ability of PR65 to prevent, inhibit, or reduce iron loading (“prevention” studies), male Hamp1^−/− mice were iron-depleted by placing them on a low-iron diet (4 ppm iron) for 2 months starting at the age of 5-6 weeks. […] A group of mice was analyzed immediately after iron depletion (baseline group), and the remaining animals were switched to an iron-loading diet (standard chow, about 300 ppm Fe) and received daily subcutaneous injection of solvent or PR65 (20, 50 or 100 nmoles) for 2 weeks. All mouse diets were obtained from Harlan-Teklad (Madison, Wis.).
Serum iron and non-heme iron concentrations were determined as previously described (Ramos E, et al. (2011) Hepatology 53(4):1333-1341), using acid treatment followed by a colorimetric assay for iron quantitation (Genzyme, Cambridge, Mass.). […] Complete blood counts were obtained with a HemaVet blood analyzer (Drew Scientific, Oxford, Conn.).
After iron depletion, a group of mice was analyzed to establish the baseline iron and hematological parameters and the rest of the mice were placed on an iron-loading diet (300 ppm Fe) for 2 weeks while simultaneously receiving daily subcutaneous injections of solven only (control) or PR65 (20, 50 or 100 nmoles) in solvent. […] Hemoglobin concentrations were monitored to detect potential iron-restrictive effects of hepcidin excess on erythropoiesis.
For data set [4], the system named is mouse. Description: Activity at 20 nmoles/mouse: serum iron 4 hours after injection versus solvent (Tables 3 and 4). The data set is classed as in vivo. Further details: key: Y: “Active” means that at 4 hours after injection serum iron in peptide-injected mice decreased statistically significantly (p < 0.05) compared to solvent-injected mice; Y*: Exhibits detectable and reproducible activity at about 50% lower than the most active compounds in Table 3 and 4. Particulars: Table 3, intraperitoneal.

For data set [5], the system named is C57/Bl6J mice. The experiment in a line: Serum iron assay in mice on low-iron diet, 4 hours after peptide. Further details: key to active in vivo: *active in vivo. Format: in vivo, mouse. The method, then: The decrease in serum iron after peptide administration is the principal measure of hepcidin activity. Thus, as provided herein, the hepcidin activity of selected peptides of the present invention were assayed in vivo by measuring serum iron in test subjects. Briefly, C57/Bl6J mice were maintained on NIH 31 rodent diet (333 parts per million (ppm) iron; Harlan Teklad, Indianapolis, Ind.). Two weeks before the experiment, the mice were switched to a diet containing about 2-4 ppm iron (Harlan Teklad, Indianapolis, Ind.) in order to suppress endogenous hepcidin. Peptide stocks were diluted to desired concentrations in sterile phosphate buffered saline (PBS) or other diluents as described next. Mice were subjected to the following treatments: (a) Injected intraperitoneally either with 100 μl PBS (control) or with 50 μg peptide in 100 μl PBS; (b) Injected with 100 μl of peptide (or PBS) mixed with 500 μg empty liposomes COATSOME EL series (NOF, Tokyo, Japan) (prepared as per manufacturer's recommendation); (c) Injected with 100 μl peptides (or PBS) solubilized with SL220 solubilization agent (NOF, Tokyo, Japan); (d) Gavaged with 250 μl of peptide (or PBS) in 1× solvent (Cremophor EL (Sigma)/ethanol/PBS; (12.5:12.5:75)). Mice were sacrificed 4 hours later, blood was collected by cardiac puncture, and serum was separated using MICROTAINER tubes (Becton Dickinson, Franklin Lakes, N.J.). Serum iron was determined by using a colorimetric assay (Diagnostic Chemicals, Oxford, Conn.), which was modified for the microplate format so that 10 μl serum was used per measurement. The results were expressed as the percentage of decrease in serum iron when compared with the average value of serum iron levels in PBS-treated mice.

For data set [6], the target named is T1, ferroportin tagged at the C-terminus with green fluorescent protein (Fpn-GFP) (Mus musculus, UniProt Q9JHI9).
T1 construct: expressed in transfected cells; host or cells: ECR293/Fpn-GFP (stably transfected, ponasterone-inducible)
T1 sequence (Q9JHI9 1-570): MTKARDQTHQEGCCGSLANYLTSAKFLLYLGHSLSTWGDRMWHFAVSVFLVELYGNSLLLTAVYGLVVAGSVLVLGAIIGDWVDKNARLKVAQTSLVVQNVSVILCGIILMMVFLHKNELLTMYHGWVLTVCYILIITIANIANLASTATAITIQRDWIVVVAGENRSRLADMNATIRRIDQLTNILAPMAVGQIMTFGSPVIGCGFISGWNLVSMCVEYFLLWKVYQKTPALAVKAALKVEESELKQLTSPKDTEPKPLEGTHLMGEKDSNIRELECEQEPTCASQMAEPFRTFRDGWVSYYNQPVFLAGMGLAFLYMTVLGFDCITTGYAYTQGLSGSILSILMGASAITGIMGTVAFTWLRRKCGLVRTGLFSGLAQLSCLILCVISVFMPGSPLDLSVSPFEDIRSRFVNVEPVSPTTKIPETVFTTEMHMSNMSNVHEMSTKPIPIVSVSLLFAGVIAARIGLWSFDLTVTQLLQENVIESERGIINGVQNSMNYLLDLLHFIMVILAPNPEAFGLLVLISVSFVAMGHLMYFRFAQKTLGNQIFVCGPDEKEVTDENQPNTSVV
The experiment in a line: Flow cytometry of ferroportin-GFP degradation in ECR293/Fpn-GFP cells. Particulars: Table 1; 24 h peptide treatment; 50% of maximal loss of fluorescence by Hep25; read-out: EC50. The data set is classed as cell-based. As for the experimental part: In vitro activity may be measured by the dose-dependent loss of fluorescence of cells engineered to display ferroportin fused to green fluorescent protein as in Nemeth et al. (2006) Blood 107:328-33. Aliquots of cells are incubated for 24 hours with graded concentrations of a reference preparation of Hep25 or a mini-hepcidin. As provided herein, the EC50 values are provided as the concentration of a given compound (e.g. peptide) that elicits 50% of the maximal loss of fluorescence generated by the reference Hep25 preparation.
Mutational studies indicate that C326, the cysteine residue at position 326 of human ferroportin, is the critical residue involved in binding hepcidin. Thus, various N-terminal fragments of Hep25 containing a thiol, i.e. Hep 4-7, Hep3-7, Hep3-8, Hep3-9, Hep1-7, Hep1-8, Hep1-9, and Hep1-10 C7A, were chemically synthesized, refolded and their activities relative to Hep25 were assayed using flow-cytometric quantitation of the ferroportin-GFP degradation, iron efflux estimation based on measurements of cellular ferritin, and radioisotopic iron efflux studies.
The activity of peptides of the present invention was measured by flow cytometry as previously described. See Nemeth et al. (2006) Blood 107:328-333, which is herein incorporated by reference. ECR293/Fpn-GFP, a cell line stably transfected with a ponasterone-inducible ferroportin construct tagged at the C-terminus with green fluorescent protein was used. See Nemeth et al. (2004) Science 306:2090-2093, which is herein incorporated by reference. Briefly, the cells were plated on poly-D-lysine coated plates in the presence of 20 μM FAC, with or without 10 μM ponasterone. After 24 hours, ponasterone was washed off, and cells were treated with peptides for 24 hours. Cells were then trypsinized and resuspended at 1×10^6 cells/ml, and the intensity of green fluorescence was analyzed by flow cytometry. Flow cytometry was performed on FAC SCAN (fluorescence activated cell scanner) Analytic Flow Cytometer (Becton Dickinson, San Jose, Calif.) with […] version 3.3 software (Becton Dickinson). Cells not induced with ponasterone to express Fpn-GFP were used to establish a gate to exclude background fluorescence. Cells induced with ponasterone, but not treated with any peptides, were used as the positive control. Each peptide was tested over the range of concentrations (0, 0.01, 0.03, 0.1, 0.3, 1, 3 and 10 μM). Each peptide treatment was repeated independently 3 to 6 times. For each concentration of peptide, the results were expressed as a fraction of the maximal activity (FHep25) of Hep25 (in the dose range 0.01-10 μM), according to the formula 1−((Fx−FHep25)/(Funtreated−FHep25)), where F was the mean of the gated green fluorescence and x was the peptide.
A general note: A flow cytometer gives signals particle by particle.

The subject of data set [7] is mouse. Description: Activity at 20 nmoles/mouse: serum iron 4 hours after injection versus solvent (Tables 3 and 4). The data set is classed as in vivo. Also noted: key: Y: “Active” means that at 4 hours after injection serum iron in peptide-injected mice decreased statistically significantly (p < 0.05) compared to solvent-injected mice; Y*: Exhibits detectable and reproducible activity at about 50% lower than the most active compounds in Table 3 and 4. The following applies: Table 3; subcutaneous.

Consider “PR82: SEQ ID NO: 101; Ida-T-H-Dpa-bhPro-R-C-R-W-Ahx-Ida(NHPal) (Ida-TH[Dip][β3hP]RCRW-{Ahx-Ida(NHPal)})”, for which the “Active @ 20 nmoles/mouse IP” value in data set [1] is listed as “Y”.

The molecule `CCCCCCCCCCCCCCCC(=O)NCCCOCCOCCOCCCNC(=O)C[C@H](Cc1ccccc1)NC(=O)[C@H](CCCNC(=N)N)NC(=O)[C@H](CS)NC(=O)[C@H](CCCNC(=N)N)NC(=O)C[C@@H]1CCCN1C(=O)[C@@H](NC(=O)[C@H](Cc1c[nH]cn1)NC(=O)[C@@H](NC(=O)CNCC(=O)O)[C@@H](C)O)C(c1ccccc1)c1ccccc1` [PR65] registered a decrease in hemoglobin in data set [2] of 2 g/dL. Further, the hemoglobin levels result in data set [3] (20 nmoles per day s.c., 2 weeks) is “did not change significantly”. In addition, the “reduction of hemoglobin concentration” value in data set [3] (50 nmoles per day s.c., 2 weeks) is listed as 3 g/dL; in data set [3] (100 nmoles per day s.c., 2 weeks), 5 g/dL. Moreover, in data set [3] (100 nmoles daily, 2 weeks), the anemia result is given as “moderately anemic”. The molecule further displayed a maximal tolerated dose in data set [3] (daily s.c. dosing) of 50 nmol.

As to `CCCCCCCCCCCCCCCC(=O)NCCCOCCOCCOCCCNC(=O)COCCOCCOCCNC(=O)C[C@H](Cc1ccccc1)NC(=O)[C@H](CCCNC(=N)N)NC(=O)[C@H](CS)NC(=O)[C@H](CCCNC(=N)N)NC(=O)C[C@@H]1CCCN1C(=O)[C@@H](NC(=O)[C@H](Cc1c[nH]cn1)NC(=O)[C@@H](NC(=O)[C@H](CC(=O)O)NC)[C@@H](C)O)C(c1ccccc1)c1ccccc1` [PR57] (H-[NMeD]TH[Dip][β3hP]RCR[β3hF][AEEEA]-{TTDA(Palmitoyl)}; N-terminus and C-terminus assumed), in data set [4], the “Active @ 20 nmoles/mouse IP” value is on record as “Y”.

Broadly, the EC50 is the concentration needed to bring the measured effect to its halfway point. For the molecule `CCCCCCCCCCCCCCCC(=O)NCCOCCOCCOCCOCCOCCOCCOCCOCCOCCOCCOCCOCCC(=O)N[C@H](Cc1ccccc1)C(=O)N[C@@H](C(=O)N[C@H](CS)C(=O)N[C@@H](C(=O)N1CCC[C@@H]1C(=O)N[C@H](Cc1ccccc1)C(=O)N[C@H](Cc1c[nH]cn1)C(=O)N[C@@H](C(=O)N[C@H](CC(=O)O)C(N)=O)[C@H](C)O)[C@H](C)CC)[C@H](C)CC` [PR27], the values for the serum iron result in data set [5] (20 nmoles i.p. in PBS), in data set [5] (200 nmoles i.p. in PBS) and in data set [5] (200 nmoles oral by gavage in Cremophor EL solution) were “comparable to that caused by i.p. administration of 20 nmoles Hep25”, “even greater decrease” and “caused a decrease in serum iron”, respectively. Besides, the active in vivo entry in data set [5] (asterisk at the EC50 value of Table 1) is on record as “*”. Besides, in data set [6], the EC50 amounted to 20 nM.

As to `CCCCCCCCCCCCCCCC(=O)NCCCOCCOCCOCCCNC(=O)COCCOCCOCCNC(=O)C[C@H](Cc1ccccc1)NC(=O)[C@H](CCCNC(=N)N)NC(=O)[C@H](CS)NC(=O)[C@H](CCCNC(=N)N)NC(=O)C[C@@H]1CCCN1C(=O)[C@@H](NC(=O)[C@H](Cc1c[nH]cn1)NC(=O)[C@@H](NC(=O)CNCC(=O)O)[C@@H](C)O)C(c1ccccc1)c1ccccc1` [PR61], the “Active @ 20 nmoles/mouse IP” value in data set [4] is given as “Y (also”. Further, the “Active @ 20 nmoles/mouse by SQ” value in data set [7] was “Y (also”.

For `CCCCCCCCCCCCCCCC(=O)NCCCOCCOCCOCCCNC(=O)COCCOCCOCCNC(=O)[C@H](Cc1ccccc1)NC(=O)C1(NC(=O)[C@H](CS)NC(=O)C2(NC(=O)[C@@H]3CCCN3C(=O)[C@@H](NC(=O)[C@H](Cc3c[nH]cn3)NC(=O)[C@@H](NC(=O)CNCC(=O)O)[C@@H](C)O)C(c3ccccc3)c3ccccc3)CCCCC2)CCCCC1` [PR60], the “Active @ 20 nmoles/mouse IP” value in data set [4] is “Y*”.
